According to ChEMBL document CHEMBL2331312, “Dimerized linear mimics of a natural cyclopeptide (TMC-95A) are potent noncovalent inhibitors of the eukaryotic 20S proteasome” (J Med Chem, 2013):
The source made the active and inactive calls. The calls are words filed in the database; no cut-off is given here.

What was measured:
[1] = target: Cathepsin B (Homo sapiens) (UniProt P07858); test: Inhibition of human cathepsin B using Suc-LLVY-AMC as substrate assessed as remaining enzyme activity at 20 uM incubated for 15 mins prior to substrate addition measured for 30 mins by fluorescence assay
[2] = target: T1, Calpain-1 catalytic subunit (Homo sapiens) (UniProt P07384); test: Inhibition of human calpain 1 using Suc-LLVY-AMC as substrate assessed as remaining enzyme activity at 20 uM incubated for 5 mins prior to substrate addition measured for 30 mins by fluorescence assay
T1 sequence (whole entry): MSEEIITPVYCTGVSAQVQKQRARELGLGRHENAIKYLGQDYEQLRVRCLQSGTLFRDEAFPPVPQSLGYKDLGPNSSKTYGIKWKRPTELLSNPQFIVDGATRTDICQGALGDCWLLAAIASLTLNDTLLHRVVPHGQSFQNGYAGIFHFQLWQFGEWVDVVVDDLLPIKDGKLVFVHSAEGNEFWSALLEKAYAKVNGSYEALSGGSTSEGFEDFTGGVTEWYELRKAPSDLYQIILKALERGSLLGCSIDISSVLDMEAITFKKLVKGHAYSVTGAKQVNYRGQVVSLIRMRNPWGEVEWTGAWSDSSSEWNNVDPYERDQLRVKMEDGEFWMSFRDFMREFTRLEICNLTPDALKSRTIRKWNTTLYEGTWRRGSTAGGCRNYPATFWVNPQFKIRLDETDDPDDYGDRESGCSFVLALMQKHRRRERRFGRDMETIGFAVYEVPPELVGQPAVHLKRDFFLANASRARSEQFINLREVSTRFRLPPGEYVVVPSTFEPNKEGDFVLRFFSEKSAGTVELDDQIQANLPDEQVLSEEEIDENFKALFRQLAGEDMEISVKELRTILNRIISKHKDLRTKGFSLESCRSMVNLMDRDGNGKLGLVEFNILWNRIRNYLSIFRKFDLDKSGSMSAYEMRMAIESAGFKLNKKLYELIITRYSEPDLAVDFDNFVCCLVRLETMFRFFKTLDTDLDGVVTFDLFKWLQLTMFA

[3] = target: Proteasome Macropain subunit (Homo sapiens, UniProt P49721); test: Inhibition of trypsin-like activity of human constitutive 20s proteasome beta-2 subunit using Boc-LRR-AMC as substrate assessed as remaining activity incubated for 15 mins prior to substrate addition measured after 45 mins by fluorescence assay
[4] = target: T2, Proteasome Macropain subunit MB1 (Homo sapiens, UniProt P28074)
T2 sequence (P28074 whole entry): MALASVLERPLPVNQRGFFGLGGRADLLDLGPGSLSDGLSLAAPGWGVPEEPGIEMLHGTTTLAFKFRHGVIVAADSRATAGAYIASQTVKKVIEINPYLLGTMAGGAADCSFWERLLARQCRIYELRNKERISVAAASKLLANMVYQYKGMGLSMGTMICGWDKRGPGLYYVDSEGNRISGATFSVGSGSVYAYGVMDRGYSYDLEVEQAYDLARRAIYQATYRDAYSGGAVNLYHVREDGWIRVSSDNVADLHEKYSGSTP
Description: (§2) Inhibition of chymotrypsin-like activity of human constitutive 20s proteasome beta-5 subunit using Suc-LLVY-AMC as substrate assessed as remaining activity incubated for 15 mins prior to substrate addition measured after 45 mins by fluorescence assay

Proteasome component C5 = target: T3, Proteasome component C5 (Homo sapiens, UniProt P20618)
T3 sequence (P20618 whole entry): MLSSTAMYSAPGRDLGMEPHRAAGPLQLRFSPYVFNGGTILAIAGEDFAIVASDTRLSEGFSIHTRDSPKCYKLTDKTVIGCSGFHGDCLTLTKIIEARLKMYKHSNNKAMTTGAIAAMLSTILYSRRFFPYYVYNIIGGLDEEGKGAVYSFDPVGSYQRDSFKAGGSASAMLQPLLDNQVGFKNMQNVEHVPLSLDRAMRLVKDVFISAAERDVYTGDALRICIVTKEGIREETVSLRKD
Description: Inhibition of postacid activity of human constitutive 20s proteasome beta-1 subunit using Z-LLE-betaNA as substrate assessed as remaining activity incubated for 15 mins prior to substrate addition measured after 45 mins by fluorescence assay

[5] = target: T4, Proteasome component C5 (Homo sapiens) (UniProt P20618); test: Inhibition of postacid activity of 20s proteasome beta-1 subunit in HEK293 cells using Z-nLPnLD-Glo as substrate at 10 uM incubated for 2 hrs prior to substrate addition measured after 10 mins by cell-based proteasome-Glo beta1 assay
T4 sequence (whole entry): T3 sequence (P20618 whole entry)

[6] = target: T2, Proteasome Macropain subunit MB1; remark: listed apart in the source
Description: as §2

[7] = target: T2, Proteasome Macropain subunit MB1; remark: listed apart in the source
Description: Inhibition of chymotrypsin-like activity of proteasome beta-5 subunit in HEK293 cells using Suc-LLVY-Glo as substrate incubated for 2 hrs prior to substrate addition measured after 10 mins by cell-based proteasome-Glo beta5 assay

[8] = target: T2, Proteasome Macropain subunit MB1; remark: listed apart in the source
Description: Competitive inhibition of chymotrypsin-like activity of human constitutive 20s proteasome beta-5 subunit using Suc-LLVY-AMC as substrate assessed as inhibition constant for dissociation of enzyme-inhibitor complex incubated for 15 mins prior to substrate addition measured after 45 mins by fluorescence assay

[9] = target: T2, Proteasome Macropain subunit MB1; test: (§1) Mixed type inhibition of chymotrypsin-like activity of human constitutive 20s proteasome beta-5 subunit using Suc-LLVY-AMC as substrate assessed as inhibition constant for dissociation of enzyme-substrate-inhibitor complex incubated for 15 mins prior to substrate addition measured after 45 mins by fluorescence assay
[10] = target: T2, Proteasome Macropain subunit MB1; test: as §1, with “enzyme-inhibitor” for “enzyme-substrate-inhibitor”
[11] = Half life of the compound in RPMI culture medium in presence of 20% fetal calf serum at 37 degC by HPLC analysis; assay type: physicochemical; details: cattle, RPMI culture medium with 20% fetal calf serum
[12] = target: T4, Proteasome component C5 (Homo sapiens); test: Inhibition of postacid activity of 20s proteasome beta-1 subunit in HEK293 cells using Z-nLPnLD-Glo as substrate at 20 uM incubated for 2 hrs prior to substrate addition measured after 10 mins by cell-based proteasome-Glo beta1 assay
[13] = target: T5, Proteasome Macropain subunit PRE2 (Saccharomyces cerevisiae S288c, UniProt P30656)
T5 sequence (P30656 whole entry): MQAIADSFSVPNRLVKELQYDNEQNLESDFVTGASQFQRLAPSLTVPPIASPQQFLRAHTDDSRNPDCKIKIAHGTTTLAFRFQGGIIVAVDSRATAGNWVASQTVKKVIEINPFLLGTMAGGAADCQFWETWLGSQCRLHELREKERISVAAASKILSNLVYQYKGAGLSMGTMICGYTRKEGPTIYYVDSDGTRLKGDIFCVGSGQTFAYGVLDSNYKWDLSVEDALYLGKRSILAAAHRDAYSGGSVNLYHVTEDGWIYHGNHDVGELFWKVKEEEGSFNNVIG
Description: Inhibition of chymotrypsin-like activity of yeast 20S proteasome beta-5 subunit using Suc-LLVY-AMC as substrate measured up to 45 mins by fluorescence assay

[14] = target: T2, Proteasome Macropain subunit MB1; test: as §1, with “Noncompetitive” for “Mixed type”
[15] = target: T2, Proteasome Macropain subunit MB1; test: as §1, with “Noncompetitive” for “Mixed type”, “enzyme-inhibitor” for “enzyme-substrate-inhibitor”

Chain of Proteasome Macropain subunit (P49721 whole entry): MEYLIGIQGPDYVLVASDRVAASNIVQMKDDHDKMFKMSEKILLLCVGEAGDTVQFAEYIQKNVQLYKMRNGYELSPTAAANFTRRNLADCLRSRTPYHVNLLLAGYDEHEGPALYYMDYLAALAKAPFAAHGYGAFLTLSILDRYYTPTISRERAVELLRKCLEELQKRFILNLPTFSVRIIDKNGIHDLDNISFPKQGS

| Structure (SMILES) | inhibition [1] | inhibition [2] | IC50 [3] | IC50 [4] | IC50 (Proteasome component C5) | inhibition [5] [%] | IC50 [6] [nM] | IC50 [7] [nM] | Ki [8] [nM] | Ki [9] [nM] | Ki [10] [nM] | half-life [11] [h] | inhibition [12] [%] | IC50 [13] [nM] | Ki [14] [nM] | Ki [15] [nM] |
| --- | --- | --- | --- | --- | --- | --- | --- | --- | --- | --- | --- | --- | --- | --- | --- | --- |
| COC(=O)CCCCCNC(=O)CCCCCNC(=O)CCCCCNC(=O)CCCCC(=O)OC | inactive | inactive | Not Active | Not Active | Not Active | – | – | – | – | – | – | – | – | – | – | – |
| C[C@H](NC(=O)[C@H](Cc1ccc(OCc2ccccc2)cc1)NC(=O)CCCCCNC(=O)CCCCCNC(=O)CCCCCNC(=O)CCCCCNC(=O)CCCCC(=O)N[C@@H](Cc1ccc(OCc2ccccc2)cc1)C(=O)N[C@@H](C)C(=O)N[C@@H](C[C@]1(O)C(=O)Nc2ccccc21)C(=O)NCc1ccccc1)C(=O)N[C@@H](C[C@]1(O)C(=O)Nc2ccccc21)C(=O)NCc1ccccc1 | inactive | inactive | – | – | – | 37 | 25.9 | 756 | 10.8 | – | – | – | – | – | – | – |
| C[C@H](NC(=O)[C@H](Cc1ccc(OCc2ccccc2)cc1)NC(=O)CCCCCNC(=O)CCCCCNC(=O)CCCCCNC(=O)CCCCC(=O)NCCCCCC(=O)NCCCCCC(=O)NCCCCCC(=O)N[C@@H](Cc1ccc(OCc2ccccc2)cc1)C(=O)N[C@@H](C)C(=O)N[C@@H](C[C@]1(O)C(=O)Nc2ccccc21)C(=O)NCc1ccccc1)C(=O)N[C@@H](C[C@]1(O)C(=O)Nc2ccccc21)C(=O)NCc1ccccc1 | inactive | inactive | – | – | – | 30 | 19.1 | 476 | 10.6 | – | – | – | – | – | – | – |
| C[C@H](NC(=O)[C@H](Cc1ccc(OCc2ccccc2)cc1)NC(=O)CCCCCNC(=O)CCCCCNC(=O)CCCCCNC(=O)CCCCCNC(=O)CCCCC(=O)NCCCCCC(=O)NCCCCCC(=O)NCCCCCC(=O)NCCCCCC(=O)N[C@@H](Cc1ccc(OCc2ccccc2)cc1)C(=O)N[C@@H](C)C(=O)N[C@@H](C[C@]1(O)C(=O)Nc2ccccc21)C(=O)NCc1ccccc1)C(=O)N[C@@H](C[C@]1(O)C(=O)Nc2ccccc21)C(=O)NCc1ccccc1 | inactive | inactive | – | – | – | – | 20 | – | 6 | – | – | – | – | – | – | – |
| C[C@H](NC(=O)[C@H](Cc1ccc(OCc2ccccc2)cc1)NC(=O)CCCCCNC(=O)CCCCCNC(=O)CCCCCNC(=O)CCCCCNC(=O)OC(C)(C)C)C(=O)N[C@@H](C[C@]1(O)C(=O)Nc2ccccc21)C(=O)NCc1ccccc1 | inactive | inactive | – | – | – | – | 707 | – | – | 200 | 67 | – | – | – | – | – |
| C/C=C\NC(=O)[C@H]1NC(=O)[C@H](CC(N)=O)CC(=O)[C@@H](NC(=O)C(=O)[C@@H](C)CC)Cc2ccc(O)c(c2)-c2cccc3c2NC(=O)[C@@]3(O)[C@@H]1O | – | – | – | – | – | – | 5.4 | – | 2.3 | – | – | – | – | – | – | – |
| C[C@H](NC(=O)[C@H](Cc1ccc(OCc2ccccc2)cc1)NC(=O)CCCCCNC(=O)CCCCCNC(=O)CCCCCNC(=O)CCCCC(=O)N[C@@H](Cc1ccc(OCc2ccccc2)cc1)C(=O)N[C@@H](C)C(=O)N[C@@H](C[C@]1(O)C(=O)Nc2ccccc21)C(=O)NCc1ccccc1)C(=O)N[C@@H](C[C@]1(O)C(=O)Nc2ccccc21)C(=O)NCc1ccccc1 | inactive | inactive | – | – | – | – | 25.8 | 541 | 10.3 | – | – | 50 | 40 | – | – | – |
| C[C@H](NC(=O)[C@H](Cc1ccc(OCc2ccccc2)cc1)NC(=O)OC(C)(C)C)C(=O)N[C@@H](C[C@]1(O)C(=O)Nc2ccccc21)C(=O)NCc1ccccc1 | inactive | inactive | – | – | – | – | 3190 | 7970 | – | 5030 | 2430 | 50 | – | 1500 | – | – |
| C[C@H](NC(=O)[C@@H](N)Cc1ccc(OCc2ccccc2)cc1)C(=O)N[C@@H](C[C@]1(O)C(=O)Nc2ccccc21)C(=O)NCc1ccccc1 | inactive | inactive | Not Active | – | – | – | 11600 | – | – | – | – | – | – | 9400 | 24500 | 24500 |
| C[C@H](NC(=O)[C@H](Cc1ccc(OCc2ccccc2)cc1)NC(=O)CCCCCNC(=O)CCCCCNC(=O)CCCCCNC(=O)CCCCCNC(=O)CCCCCNC(=O)CCCCC(=O)N[C@@H](Cc1ccc(OCc2ccccc2)cc1)C(=O)N[C@@H](C)C(=O)N[C@@H](C[C@]1(O)C(=O)Nc2ccccc21)C(=O)NCc1ccccc1)C(=O)N[C@@H](C[C@]1(O)C(=O)Nc2ccccc21)C(=O)NCc1ccccc1 | inactive | inactive | – | – | – | 25 | 22.7 | 472 | 11.4 | – | – | – | – | – | – | – |
| C[C@H](NC(=O)[C@H](Cc1ccc(OCc2ccccc2)cc1)NC(=O)CCCCCNC(=O)CCCCCNC(=O)CCCCCNC(=O)OC(C)(C)C)C(=O)N[C@@H](C[C@]1(O)C(=O)Nc2ccccc21)C(=O)NCc1ccccc1 | inactive | inactive | – | – | – | – | 460 | 252 | – | 316 | 101 | 19 | – | – | – | – |
| COC(=O)CCCCCNC(=O)CCCCCNC(=O)CCCCCNC(=O)CCCCCNC(=O)CCCCCNC(=O)CCCCCNC(=O)OC(C)(C)C | inactive | inactive | Not Active | Not Active | Not Active | – | – | – | – | – | – | – | – | – | – | – |
